The values that follow come from ChEMBL document CHEMBL1671811, “Deconstruction of non-nucleoside reverse transcriptase inhibitors of human immunodeficiency virus type 1 for exploration of the optimization landscape of fragments” (J Med Chem, 2011).

pIC50, pKd: −log10 of the molar value.

What is called pKd is the negative decadic logarithm of the Kd, by convention in mol/L. Read a low pKd as a high Kd. What is called pIC50 is −log10 of the IC50, conventionally taken in molar units. The low end stands for a large IC50, the high end for a small IC50.

One assay deals with T1, Human immunodeficiency virus type 1 reverse transcriptase (Human immunodeficiency virus 1, UniProt Q72547). In words: Binding affinity to HIV1 reverse transcriptase by surface plasmon resonance based biosensor assay. (Surface plasmon resonance follows binding to a sensor surface in real time, without labels.)
`NC(=S)NCCc1ccccc1`: the negative logarithm of the Kd (pKd) is 3.15. `O=C(CSc1nncn1-c1ccccc1)Nc1ccccc1` showed a pKd of 2.77. The compound `NS(=O)(=O)c1ccc(NC(=O)COc2ccc(Cl)cc2)cc1` showed a pKd of 4.52.

For `NS(=O)(=O)c1ccc(NC(=O)CSc2nc[nH]n2)cc1`, the pKd is 2.80.

In turn, `CC(=O)c1ccccc1OCC(=O)Nc1ccccc1C` showed a negative-log Kd (pKd) of 3.10.

Consider `Cc1ccccc1OCC(=O)Nc1ccc(S(N)(=O)=O)cc1`, for which the pKd was 2.96. In turn, `Cc1ccc(-n2cnnc2SCC(=O)Nc2ccccc2)cc1` had a pKd of 3.10.

In turn, `NS(=O)(=O)c1ccc(NC(=O)CSc2nncn2-c2ccccc2)cc1` showed a pKd of 2.89. Take `S=C(NCCc1ccccc1)Nc1ccccn1`: the negative logarithm of the Kd (pKd) was 5.22. As to `S=C(NCCc1ccccc1)Nc1ccc(Br)cn1`, the negative logarithm of the Kd (pKd) is 5.70.

For a further assay, the target named is T1, Human immunodeficiency virus type 1 reverse transcriptase. In words: Inhibition of HIV1 reverse transcriptase.
Consider `Cc1cc(S(N)(=O)=O)ccc1NC(=O)COc1ccc(Cl)cc1C(=O)c1cc(F)cc(C(F)(F)F)c1`, for which the pIC50 was 8.85.
